The values below come from US20240148769A1, “PHARMACEUTICAL COMPOSITION FOR PREVENTING OR TREATING CORONAVIRUS DISEASE 19, CONTAINING CARBOCYCLIC NUCLEOSIDE DERIVATIVE” (FUTURE MEDICINE CO., LTD., priority 2021, published 2024).

The test system of one data set is SARS-CoV-2. Description: microbe, parasite or virus in culture. Type of data set: cell-based. The following applies: for inhibition at 10 µM: screening criterion for Positives, 10 μM (FIG. 8), read-out: ability to inhibit infection.
The nature of the next data set: in vitro. The following applies: African green monkey.
The mark [1] stands for this setting: Severe acute respiratory syndrome coronavirus 2, Vero, 24 h.
Setting [2] is: Severe acute respiratory syndrome coronavirus 2, Vero cells, SARS-CoV-2 MOI 0.0125, 24 hours, derived through the DRC, duplicate, read-out: IC50.
Where [3] appears, read: Severe acute respiratory syndrome coronavirus 2, Vero cells.

Molecules are shown by their SMILES. Like-named read-outs stand apart in the source and are kept apart here.

As for `CCN(CC)CCCC(C)Nc1ccnc2cc(Cl)ccc12` (stereo not drawn) [Chloroquine, chloroquine, reference compound], the IC50 in the data set on SARS-CoV-2 (setting [1]) was 9.71 µM. In addition, the CC50 in “in vitro” was more than 150 µM.

`CCC(CC)COC(=O)[C@H](C)N[P@](=O)(OC[C@H]1O[C@@](C#N)(c2ccc3c(N)ncnn23)[C@H](O)[C@@H]1O)Oc1ccccc1` [Remdesivir, remdesivir, reference compound] gave a concentration for half-maximal inhibition (IC50) with SARS-CoV-2 (setting [1]) of 7.9 µM. In addition, the CC50 in the data set “in vitro” was more than 50 µM.

Take `Cc1cccc(C)c1OCC(=O)N[C@@H](Cc1ccccc1)[C@@H](O)C[C@H](Cc1ccccc1)NC(=O)[C@H](C(C)C)N1CCCNC1=O` [Lopinavir, lopinavir, reference compound]: the concentration for half-maximal inhibition (IC50) in the data set on SARS-CoV-2 (setting [1]) turned out to be 20.8 µM. In the data set “in vitro”, this compound gave a CC50 of more than 50 µM.

In the case of `Nc1ncnc2c1ncn2[C@H]1C(O)C(O)[C@@H](CO)[C@H]1F` (stereo partly drawn) [Chemical Formula 1-1], in the data set on SARS-CoV-2 (setting [2]), the 50% inhibitory concentration (IC50) is 7.43 µM. For the same compound, the inhibition at 10 µM in the data set on SARS-CoV-2 (setting [3]) was not below 70%. In the data set “in vitro”, this compound showed a CC50 of more than 50 µM.

With `CNc1nc(-c2cccs2)nc2c1nc(C#Cc1ccccc1)n2[C@@H]1OCC(O)C1O` (stereo partly drawn) [Chemical Formula 2], the 50% inhibitory concentration (IC50) in the data set with SARS-CoV-2 (setting [2]) was 7.22 µM. Besides, the inhibition at 10 µM in the data set with SARS-CoV-2 (setting [3]) was not below 70%. Moreover, the CC50 in “in vitro” was more than 50 µM.

As for `Nc1ncnc2c1ncn2[C@H]1C(O)C(O)[C@@H](CO)C1(F)F` (stereo partly drawn) [Chemical Formula 1-2], in the data set with SARS-CoV-2 (setting [2]), the concentration for half-maximal inhibition (IC50) came to 3.08 µM. Also, the inhibition at 10 µM in the data set on SARS-CoV-2 (setting [3]) was not below 70%. This compound also had a CC50 in “in vitro” of more than 50 µM.

Usually IC50 stands for the concentration needed to halve the response being measured.
